The record followed here is patent US20090215835A1, “TREATMENT OF CANCER WITH SORAFENIB” (priority 2005, published 2009).

Assay type in all cases: in vivo, human
A short description of series [1]: Pharmacokinetics of sorafenib in plasma of HCC patients. The following applies: Child-Pugh A versus B HCC patients, 400 mg bid oral. Here is the method:
(§1) Patients with inoperable hepatocellular carcinoma (HCC), no prior systemic treatment, and Child-Pugh (CP) score of A or B, received oral sorafenib at 400 mg bid continuously in 4-week cycles. Tumor response was assessed every two cycles using modified WHO criteria and independent radiologic review. Plasma samples were collected to evaluate the pharmacokinetics (PK) of sorafenib. Biomarker assays were performed in selected patients. These included phospho-ERK levels via immunohistochemistry in pretreatment biopsies, plasma HER-2/neu analysis, plasma protein proteomics via mass spectrometry, and blood cell RNA expression patterns via Affymetrix GeneChip microarray analysis.

Series [2] in a line: Drug-related toxicities in HCC patients on oral sorafenib. The following applies: 400 mg bid oral. Here is the method: as §1
For series [3], the system named is inoperable hepatocellular carcinoma (HCC). The series can be described thus: Tumor response, TTP and survival in patients with inoperable hepatocellular carcinoma on oral sorafenib. To be noted: 400 mg bid oral. The protocol:
as §1

Setting [4] is: 137 HCC patients, independent radiologic review.

For “N-[4-chloro-3-(trifluoromethyl)phenyl]-N′-{4-[2-carbamoyl-1-oxo-(4-pyridyloxy)]phenyl}urea [sorafenib]”, the “pharmacokinetic differences between CP A and B patients” value in series [1] is on record as “no pharmacokinetic differences”. In series [2], the “grade ¾ drug-related toxicity leading to dose delay and/or modification: diarrhea” value was found to be 4.4%, the “grade ¾ drug-related toxicity leading to dose delay and/or modification: fatigue” value was determined as 5.8% and the “grade ¾ drug-related toxicity leading to dose delay and/or modification: hand-foot skin reaction” value is 5.1%. The “patients who achieved a partial response” value in series [3] (137 HCC patients, continuous 4-week cycles, independent radiologic review, modified WHO criteria) came out at 2.2%. For the same substance, in series [3] (setting [4]), the “patients who achieved a minor response” value was 5.8% and the “patients with stable disease for at least 16 weeks as best response” value is listed as 33.6%. The same substance registered a median overall survival in series [3] (HCC patients) of 9.2 months. In addition, in series [3] (investigator-assessed, HCC patients), the “median TTP” value was 4.2 months.
